Here are results for seven compounds from ChEMBL document CHEMBL1201862, “PubChem BioAssay data set” (2004).

Test systems include U-251; RPMI-8226; A498; XF498; NCI-H226; NCI-H23; HCT-15; SW-620; MCF7; NCI-H460; SF-539; SNB-19; M19-MEL; Hs-578T; LXFL 529; CAKI-1; MDA-MB-231; MDA-MB-435; T47D; M14.
Test in all cases: growth of human tumour cells (NCI), 48 h

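Step 1: Grow cells in 96-well plates. Step 2: Expose to compound for 48 hours at 5 concentrations. Step 3: Interpolate endpoints linearly; if unreached, use highest concentration. GI50: concentration for 50% inhibition of growth.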 The source made the active and inactive calls. Rule as the data show it: active = GI50 up to about 1.1 µM and inactive = higher.

Turning to `OCC#CCNCl`, the GI50 in the experiment on U-251 was > 100 µM (inactive); in the experiment with RPMI-8226, > 100 µM (inactive); in the experiment with A498, > 100 µM (inactive); with XF498, > 53.1 µM (inactive); in the experiment on NCI-H226 it was > 100 µM (inactive); with NCI-H23, > 100 µM (inactive). For the same compound, the GI50 in the experiment on HCT-15 was > 100 µM; in the experiment with SW-620, > 100 µM (inactive); in the experiment with MCF7, > 100 µM (inactive); with NCI-H460 it was > 100 µM (inactive); with SF-539, > 100 µM (inactive); in the experiment with SNB-19, > 100 µM (inactive). Also, the GI50 with M19-MEL is > 100 µM (inactive).

Regarding `COc1cc([C@@H]2c3cc4c(cc3[C@@H](OC3OC5COC(C)OC5C(O)C3O)[C@H]3COC(=O)[C@H]23)OCO4)cc(OC)c1O` (stereo not given in full), the GI50 is 3.3 µM (inactive) in the experiment with U-251; 7.14 µM (inactive) in the experiment on A498; 0.735 µM (active) in the experiment with Hs-578T; 26.5 µM (inactive) with LXFL 529; 4.2 µM (inactive) with CAKI-1; 1.7 µM (inactive) in the experiment on MDA-MB-231. In addition, the GI50 with XF498 is 8.41 µM (inactive); with MDA-MB-435, 28.2 µM (inactive); in the experiment with NCI-H226, 3.44 µM (inactive); in the experiment on NCI-H23, 6.01 µM (inactive); in the experiment on HCT-15, 17.6 µM; in the experiment with SW-620, 6.71 µM (inactive). For the same compound, the GI50 in the experiment on T47D is 0.897 µM (active); in the experiment on NCI-H460, 0.533 µM (active); in the experiment on SF-539 it was 3.27 µM (inactive); in the experiment with M19-MEL, 34.7 µM (inactive).

Consider `CN(CCO)/N=N/c1n[nH]cc1C(N)=O`, for which the GI50 with U-251, with RPMI-8226, in the experiment with A498, with CAKI-1, in the experiment on XF498 and in the experiment on NCI-H226 was > 100 µM (inactive) in each case. The GI50 in the experiment on NCI-H23 was > 100 µM (inactive); with HCT-15 it was > 100 µM; with SW-620, > 100 µM (inactive); in the experiment with MCF7, > 100 µM (inactive); with NCI-H460, > 100 µM (inactive); in the experiment on SF-539, > 100 µM (inactive). The GI50 in the experiment on SNB-19 and in the experiment with M19-MEL was > 100 µM (inactive) in each case.

With `CCC(C)C1NC(=O)CNC(=O)C2Cc3c([nH]c4cc(O)ccc34)[S+]([O-])CC(NC(=O)CNC1=O)C(=O)NC(CC(=O)O)C(=O)N1CC(O)CC1C(=O)NC(C(C)C(O)CO)C(=O)N2` (stereo not given), the GI50 in the experiment with U-251 is 3.83 µM (inactive); with RPMI-8226 it was 20.3 µM (inactive); in the experiment on A498, 2.83 µM (inactive); in the experiment with XF498, 1.16 µM (inactive); in the experiment on NCI-H226 it was 1.6 µM (inactive); in the experiment on NCI-H23 it was 1.83 µM (inactive). For the same compound, the GI50 with HCT-15 is 10.4 µM; in the experiment on SW-620, 36.2 µM (inactive); in the experiment on MCF7, 5.12 µM (inactive); with NCI-H460, 2.11 µM (inactive); in the experiment with SF-539, 0.45 µM (active); in the experiment with SNB-19 it was 1.3 µM (inactive). Besides, the GI50 with M19-MEL was 3.24 µM (inactive).

With `COc1ccc(CC(N)=O)cc1OC`, the GI50 is > 1250 µM (inactive) in the experiment with U-251; > 1250 µM (inactive) in the experiment with RPMI-8226; > 1250 µM (inactive) in the experiment on A498; 564 µM (inactive) with CAKI-1; > 879 µM (inactive) with XF498; > 1250 µM (inactive) with NCI-H226. Besides, the GI50 was > 1250 µM (inactive) in the experiment on NCI-H23; 1090 µM in the experiment on HCT-15; > 1250 µM (inactive) in the experiment with SW-620; > 1250 µM (inactive) with MCF7; > 1250 µM (inactive) in the experiment with NCI-H460; > 1250 µM (inactive) with SF-539. The GI50 in the experiment on SNB-19 and in the experiment with M19-MEL was > 1250 µM (inactive) each time.

With `CCOC(=O)C(C#N)(Cc1c[nH]c2ccccc12)NC(C)=O` (stereo not given), the GI50 with U-251, with RPMI-8226, in the experiment on LXFL 529, in the experiment on CAKI-1, with NCI-H226 and with NCI-H23 was > 100 µM (inactive) each time. Further, the GI50 in the experiment on HCT-15 was > 100 µM; in the experiment with SW-620, > 100 µM (inactive); in the experiment on NCI-H460, > 100 µM (inactive); with M14, > 100 µM (inactive); with M19-MEL it was > 100 µM (inactive).

As for `CN(C)CCNC(=O)c1cccc2[nH]c(-c3ccccn3)nc12`, the GI50 with U-251 is 38.8 µM (inactive); with RPMI-8226 it was 21.7 µM (inactive); in the experiment on A498, 36.6 µM (inactive); in the experiment on CAKI-1 it was 21.5 µM (inactive); in the experiment on XF498, 36.6 µM (inactive); in the experiment on NCI-H226, 18.5 µM (inactive). For the same compound, the GI50 was 43.7 µM (inactive) in the experiment on NCI-H23; 37.2 µM in the experiment with HCT-15; 24.9 µM (inactive) with SW-620; 31.5 µM (inactive) in the experiment with MCF7; 20.8 µM (inactive) with NCI-H460; 43.5 µM (inactive) in the experiment with SF-539. For the same compound, the GI50 in the experiment on SNB-19 is 42.2 µM (inactive); with M19-MEL it was 29.7 µM (inactive).
